Laboratory results taken from patent US10703764B2, “Benzopiperazine compositions as BET bromodomain inhibitors” (FORMA Therapeutics, Inc., priority 2013, dated 2020).

Key:
BRD4 BD1 = target: T1, BRD4 BD1 (Homo sapiens, UniProt O60885); assay: AlphaScreen binding assay, BRD4 Bromodomain 1
T1 construct: made in house
How it was run: (§1)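 An AlphaScreen competition format was used with His-BRD4 BD1 or BD2 and biotin-H4 K5/8/12/16-acetyl peptide, each at matched final levels of 50 nM (BD1) or 100 nM (BD2). Incubation in HEPES/NaCl buffer with 0.1% BSA and 0.01% Triton X-100 ran ≥1 h before IC50 determination.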

BRD4 BD2 = target: T2, BRD4 BD2 (Homo sapiens, UniProt O60885); assay: AlphaScreen binding assay, BRD4 Bromodomain 2
T2 construct: made in house
How it was run: as §1

CC(=O)N1c2ccc(-c3ccc(S(C)(=O)=O)cc3)cc2N(C(=O)NCc2ccccc2Cl)C[C@@H]1C [Example I-977]
IC50 (BRD4 BD1): > 10 µM | IC50 (BRD4 BD2): > 0.5 µM

CC(=O)N1c2ccc(-c3ccc(S(C)(=O)=O)cc3)cc2N(C(=O)NCC(C)C)C[C@@H]1C [Example I-978]
IC50 (BRD4 BD1): > 10 µM | IC50 (BRD4 BD2): > 0.5 µM

CC(=O)N1c2ccc(-c3ccc(S(C)(=O)=O)cc3)cc2N(C(=O)Nc2ccsc2)C[C@@H]1C [Example I-979]
IC50 (BRD4 BD1): 1 to 10 µM | IC50 (BRD4 BD2): 0.05 to 0.5 µM

CC(=O)N1c2ccc(-c3ccc(S(C)(=O)=O)cc3)cc2N(C(=O)NCc2ccco2)C[C@@H]1C [Example I-980]
IC50 (BRD4 BD1): > 10 µM | IC50 (BRD4 BD2): > 0.5 µM

CC(=O)N1c2ccc(-c3ccc(S(C)(=O)=O)cc3)cc2N(C(=O)c2cc(C)[nH]n2)CC1C (stereo not drawn) [Example I-981]
IC50 (BRD4 BD1): 1 to 10 µM | IC50 (BRD4 BD2): 0.05 to 0.5 µM

CC(=O)N1c2ccc(-c3ccc(S(C)(=O)=O)cc3)cc2N(C(=O)c2ncc[nH]2)CC1C (stereo not drawn) [Example I-982]
IC50 (BRD4 BD1): 1 to 10 µM | IC50 (BRD4 BD2): > 0.5 µM

CC(=O)N1c2ccc(-c3ccc(S(C)(=O)=O)cc3)cc2N(C(=O)c2ccc(S(=O)(=O)N(C)C)o2)C[C@@H]1C [Example I-983]
IC50 (BRD4 BD1): > 10 µM | IC50 (BRD4 BD2): > 0.5 µM

CC(=O)N1c2ccc(-c3ccc(S(C)(=O)=O)cc3)cc2N(C(=O)c2ccc(CN(C)C)o2)C[C@@H]1C [Example I-984]
IC50 (BRD4 BD1): > 10 µM | IC50 (BRD4 BD2): 0.05 to 0.5 µM

CC(=O)N1c2ccc(-c3ccc(S(C)(=O)=O)cc3)cc2N(C(=O)c2cccc(N)c2)C[C@@H]1C [Example I-985]
IC50 (BRD4 BD1): > 10 µM | IC50 (BRD4 BD2): 0.05 to 0.5 µM

CC(=O)N1c2ccc(-c3ccc(S(C)(=O)=O)cc3)cc2N(C(=O)c2ccc(N)cc2)C[C@@H]1C [Example I-986]
IC50 (BRD4 BD1): > 10 µM | IC50 (BRD4 BD2): > 0.5 µM

C[C@H]1CN(C(=O)c2ccco2)c2cc(-c3ccc(S(C)(=O)=O)cc3)ccc2N1C(N)=O [Example I-987]
IC50 (BRD4 BD1): > 10 µM | IC50 (BRD4 BD2): > 0.5 µM

CC(=O)N1c2ccc(NCc3ccccc3)cc2N(C(=O)c2ccco2)C[C@@H]1C [Example I-989]
IC50 (BRD4 BD1): 1 to 10 µM | IC50 (BRD4 BD2): 0.05 to 0.5 µM

CC(=O)N1c2ccc(N(C)Cc3ccccc3)cc2N(C(=O)c2ccco2)C[C@@H]1C [Example I-990]
IC50 (BRD4 BD1): 1 to 10 µM | IC50 (BRD4 BD2): 0.05 to 0.5 µM

CC(=O)N1c2ccc(Nc3ccccc3)cc2N(C(=O)c2ccco2)C[C@@H]1C [Example I-991]
IC50 (BRD4 BD1): 1 to 10 µM | IC50 (BRD4 BD2): 0.05 to 0.5 µM

CC(=O)N1c2ccc(N(C)c3ccccc3)cc2N(C(=O)c2ccco2)C[C@@H]1C [Example I-992]
IC50 (BRD4 BD1): 1 to 10 µM | IC50 (BRD4 BD2): > 0.5 µM

CC(=O)N1c2ccc(N3CCCC3)cc2N(C(=O)c2ccco2)C[C@@H]1C [Example I-993]
IC50 (BRD4 BD1): 1 to 10 µM | IC50 (BRD4 BD2): 0.05 to 0.5 µM

C[C@H]1CN(C(=O)OC2COC2)c2cc(-c3cnn(C4CC4)c3)ccc2N1C(=O)C1CC1 [Example I-998]
IC50 (BRD4 BD1): 1 to 10 µM | IC50 (BRD4 BD2): > 0.5 µM

COC(=O)N1c2ccc(-c3cnn(C4CC4)c3)cc2N(C(=O)OC2COC2)C[C@@H]1C [Example I-999]
IC50 (BRD4 BD1): 1 to 10 µM | IC50 (BRD4 BD2): 0.05 to 0.5 µM

CC(=O)N1c2ccc(-c3cnn(CCO)c3)cc2N(C(=O)Oc2ccc(F)cc2F)C[C@@H]1C [Example I-1009]
IC50 (BRD4 BD1): 1 to 10 µM | IC50 (BRD4 BD2): 0.05 to 0.5 µM

CC(=O)N1c2ccc(-c3ccc(S(C)(=O)=O)cc3)cc2N(C(=O)Oc2ccc(F)cc2F)C[C@@H]1C [Example I-1010]
IC50 (BRD4 BD1): 1 to 10 µM | IC50 (BRD4 BD2): 0.05 to 0.5 µM

CC(=O)N1c2ccc(-c3cnn(CCS(C)(=O)=O)c3)cc2N(C(=O)Oc2ccc(F)cc2)C[C@@H]1C [Example I-1017]
IC50 (BRD4 BD1): 1 to 10 µM | IC50 (BRD4 BD2): > 0.5 µM

COC(=O)N1c2ccc(-c3cnn(CCO)c3)cc2N(C(=O)Oc2ccc(F)cc2)C[C@@H]1C [Example I-1022]
IC50 (BRD4 BD1): 1 to 10 µM | IC50 (BRD4 BD2): 0.05 to 0.5 µM

CC(=O)N1c2ccc(-c3cnn(C4CC4)c3)cc2N(C(=O)Oc2ncccc2C(F)(F)F)C[C@@H]1C [Example I-1188]
IC50 (BRD4 BD1): > 10 µM | IC50 (BRD4 BD2): > 0.5 µM

CC(=O)N1c2ccc(-c3cnn(C4CC4)c3)cc2N(C(=O)Oc2ccc(Cl)cc2Cl)C[C@@H]1C [Example I-1193]
IC50 (BRD4 BD1): 1 to 10 µM | IC50 (BRD4 BD2): 0.05 to 0.5 µM

CC(=O)N1c2ccc(-c3cnn(C4CC4)c3)cc2N(C(=O)Oc2c(Cl)cc(Cl)c3cccnc23)C[C@@H]1C [Example I-1197]
IC50 (BRD4 BD1): 1 to 10 µM | IC50 (BRD4 BD2): 0.05 to 0.5 µM

CC(=O)N1c2ccc(-c3cnn(C4CC4)c3)cc2N(C(=O)Oc2cc(F)ccc2C)C[C@@H]1C [Example I-1200]
IC50 (BRD4 BD1): 1 to 10 µM | IC50 (BRD4 BD2): 0.05 to 0.5 µM

CC(=O)N1c2ccc(-c3cnn(C4CC4)c3)cc2N(C(=O)Oc2cnc3ccccc3c2)C[C@@H]1C [Example I-1203]
IC50 (BRD4 BD1): 1 to 10 µM | IC50 (BRD4 BD2): 0.05 to 0.5 µM

COc1ncc(F)cc1OC(=O)N1C[C@H](C)N(C(C)=O)c2ccc(-c3cnn(C4CC4)c3)cc21 [Example I-1208]
IC50 (BRD4 BD1): 1 to 10 µM | IC50 (BRD4 BD2): 0.05 to 0.5 µM

COc1cc(OC(=O)N2C[C@H](C)N(C(C)=O)c3ccc(-c4cnn(C5CC5)c4)cc32)c(Cl)cn1 [Example I-1209]
IC50 (BRD4 BD1): 1 to 10 µM | IC50 (BRD4 BD2): 0.05 to 0.5 µM

COc1ncc(C)cc1OC(=O)N1C[C@H](C)N(C(C)=O)c2ccc(-c3cnn(C4CC4)c3)cc21 [Example I-1210]
IC50 (BRD4 BD1): 1 to 10 µM | IC50 (BRD4 BD2): 0.05 to 0.5 µM
